Assay results from patent publication US9555038B2, “Heterocycle-substituted tetracyclic compounds and methods of use thereof for the treatment of viral diseases” (Merck Sharp & Dohme Corp., priority 2013, dated 2017).
Like-named read-outs stand apart in the source and are kept apart here.

What was measured:
[1] = tested on: HCV replicon 1B; assay: Cell-based HCV Replicon Assay B, replicon 1B
Method: In an alternate assay (“Replicon Assay B”), 1000 cells were seeded per well in a 384-well collagen coated black plate from Greiner bio-one (Cat #781946) in 5% FBS. Inhibitors of this invention were added at 24 h post-seeding, and the plates were incubated for 3 days. Cells were subsequently lysed with Qiagen lysis buffer (Cat #1062731) to extract the RNA. HCV replicon RNA level was measured by real-time PCR using the RNA-to-CT kit from Applied Biosystem (Cat #4392656) and genotype-specific primers and probes. The amplicon was located within NS5B. The sequence of the PCR primers are as follows: 5B.2F, ATGGACAGGCGCCCTGA (SEQ. ID NO. 1); 5B.2R, […] (SEQ. ID NO. 2); the probe sequence was FAM-labeled CACGCCATGCGCTGCGG (SEQ. ID NO. 3). To detect genotype 1A the primer 1A F, TGCGGAACCGGTGAGTACA and 1A R, […] were used; the probe sequence was FAM-[…].
The real-time RT-PCR reactions were run on ABI PRISM 7900HT or Viia7 Sequence Detection System using the following program: 48° C. for 30 minutes, 95° C. for 10 minutes, 40 cycles of 95° C. for 15 sec, 60° C. for 1 minutes. The 50% effective concentration (EC50) was the drug concentration necessary to achieve an increase in the cycle threshold (CT) of 1 over the projected baseline CT.
Data was obtained for various compounds of the present invention using the methods described in the Example above, and is presented in the table immediately below. Data for replicons 1A, 1AY93H and 2B were obtained using Replicon Assay A and data for replicons 1AQ30D and 1B were obtained using Replicon Assay B.

[2] = tested on: HCV replicon 1A; assay: Cell-based HCV Replicon Assay A, replicon 1A
How it was run: (§1)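 Three-day exposure of replicon cells (2000/well) to serially diluted compound, 0.5% DMSO, 5% serum. RNA per cell was derived as (Ct − intercept)/slope from replicon total RNA standards, with cyclophilin amplified in the same reaction.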

[3] = tested on: HCV replicon 2B; assay: Cell-based HCV Replicon Assay A, replicon 2B
How it was run: as §1

[4] = tested on: HCV replicon 1AY93H; assay: Cell-based HCV Replicon Assay A, replicon 1AY93H
How it was run: as §1

[5] = Hepatitis C virus, read-out: 2B IC50 (nM), replicon 2B
[6] = Hepatitis C virus, read-out: 1A Y93H IC50 (nM), replicon 1AY93H
[7] = read-out: 1A Y93H IC50, replicon 1AY93H

Row | Compound | IC50 ([2]; Hepatitis C virus) [pM] | IC50 [2] [pM] | IC50 ([3]; read-out: 2B IC50, replicon 2B) [nM] | IC50 [4, 7] [nM] | other results
1 | COC(=O)N[C@H](C(=O)N1CCC[C@H]1c1ncc(-c2cc(F)c3c(c2)OC(c2sc(C4CC4)nc2C2CC2)n2c-3cc3cc(-c4cnc([C@@H]5CCCN5C(=O)[C@@H](NC(=O)OC)C(C)C)[nH]4)ccc32)[nH]1)C(C)C (single isomer, unassigned) [Compound 525] | 4.5 | – | – | – | IC50 ([1]; Hepatitis C virus): 2.2 pM
2 | COC(=O)N[C@H](C(=O)N1CCC[C@H]1c1ncc(-c2cc(F)c3c(c2)OC(c2cnc(C4CC4)s2)n2c-3c(C)c3cc(-c4cnc([C@@H]5CCCN5C(=O)[C@@H](NC(=O)OC)C(C)C)[nH]4)ccc32)[nH]1)C(C)C (single isomer, unassigned) [Compound 496] | – | 6.9 | – | – | IC50 [1]: 3.5 pM
3 | COC(=O)NC(C(=O)N1[C@@H]2C[C@@H]2C[C@H]1c1ncc(-c2ccc3c(c2)cc2n3C(c3cnc(C4CC4)s3)Oc3cc(-c4cnc([C@@H]5CCCN5C(=O)[C@@H](NC(=O)OC)C(C)C)[nH]4)cc(F)c3-2)[nH]1)C1C[C@@H](C)O[C@H](C)C1 (single isomer, unassigned) [Compound 312] | 3.1 | 2.5 | – | – | IC50 [1]: 3 pM; IC50 ([1]; Hepatitis C virus): 2 pM
4 | CCc1nnc(C2Oc3cc(-c4cnc([C@@H]5CCCN5C(=O)[C@@H](NC(=O)OC)C(C)C)[nH]4)cc(F)c3-c3cc4cc(-c5cnc([C@@H]6CCCN6C(=O)C(NC(=O)OC)C(C)C)[nH]5)ccc4n32)s1 (single isomer, unassigned) [Compound 114] | – | 2.7 | – | – | IC50 ([1]; Hepatitis C virus): 3 pM
5 | COC(=O)N[C@H](C(=O)N1CCC[C@H]1c1ncc(-c2cc(F)c3c(c2)OC(c2nc(C4CC4)sc2C)n2c-3cc3cc(-c4cnc([C@@H]5CCCN5C(=O)[C@@H](NC(=O)OC)C(C)C)[nH]4)ccc32)[nH]1)C(C)C (mixture of isomers) [Compound 451] | 2.5 | – | – | – | IC50 ([1]; Hepatitis C virus): 2.7 pM
6 | COC(=O)N[C@H](C(=O)N1CCC[C@H]1c1ncc(-c2cc(F)c3c(c2)OC(c2cnc(-c4ccccn4)s2)n2c-3cc3cc(-c4cnc([C@@H]5CCCN5C(=O)[C@@H](NC(=O)OC)C(C)C)[nH]4)ccc32)[nH]1)C(C)C (single isomer, unassigned) [Compound 406] | 3 | – | – | – | IC50 [3, 5]: 0.005 nM; IC50 [4, 6]: 0.0034 nM
7 | COC(=O)N[C@H](C(=O)N1CCC[C@H]1c1ncc(-c2cc(F)c3c(c2)OC(c2cnc(C4CCCCC4)s2)n2c-3cc3cc(-c4cnc([C@@H]5CCCN5C(=O)[C@@H](NC(=O)OC)C(C)C)[nH]4)ccc32)[nH]1)C(C)C (single isomer, unassigned) [Compound 528] | – | 1.4 | 0.727 | 1.15 | –
8 | COC(=O)NC(C(=O)N1CCC[C@H]1c1ncc(-c2ccc3c(c2)cc2n3C(c3nc(C(F)(F)F)cs3)Oc3cc(-c4cnc([C@@H]5CCCN5C(=O)[C@@H](NC(=O)OC)C(C)C)[nH]4)cc(F)c3-2)[nH]1)C1C[C@@H](C)O[C@@H](C)C1 (single isomer, unassigned) [Compound 75] | 2.2 | – | 0.491 | 0.875 | –
9 | CCc1ncc(C2Oc3cc(-c4cnc([C@@H]5CCCN5C(=O)[C@@H](NC(=O)OC)C(C)C)[nH]4)cc(F)c3-c3cc4cc(-c5cnc([C@@H]6CCCN6C(=O)C(NC(=O)OC)C6C[C@@H](C)O[C@@H](C)C6)[nH]5)ccc4n32)s1 (single isomer, unassigned) [Compound 35] | 2.6 | – | 0.125 | 0.161 | –
10 | COC(=O)NC(C(=O)N1CCC[C@H]1c1ncc(-c2ccc3c(c2)cc2n3C(c3cnc(C4CC4)s3)Oc3cc(-c4cnc([C@@H]5CCCN5C(=O)[C@@H](NC(=O)OC)C(C)C)[nH]4)cc(F)c3-2)[nH]1)C1C[C@@H](C)O[C@@H](C)C1 (single isomer, unassigned) [Compound 306] | 3 | – | 0.145 | 0.244 | –
11 | COC(=O)NC(C(=O)N1CCC[C@H]1c1ncc(-c2ccc3c(c2)cc2n3C(c3nc4c(s3)CCC4)Oc3cc(-c4cnc([C@@H]5CCCN5C(=O)[C@@H](NC(=O)OC)C(C)C)[nH]4)cc(F)c3-2)[nH]1)C1CCOC(C)(C)C1 (single isomer, unassigned) [Compound 536] | – | 2.3 | – | – | IC50 ([3]; replicon 2B, read-out: 2B IC50): 0.029 nM; IC50 [1]: 2.7 pM
12 | COC(=O)N[C@H](C(=O)N1CCC[C@H]1c1ncc(-c2cc(F)c3c(c2)OC(c2cscn2)n2c-3cc3cc(-c4cnc([C@@H]5CCCN5C(=O)[C@@H](NC(=O)OC)C(C)C)[nH]4)ccc32)[nH]1)C(C)C (single isomer, unassigned) [Compound 430] | – | 6 | 7.1 | 19.5 | –
13 | CCCc1ncc(C2Oc3cc(-c4cnc([C@@H]5CCCN5C(=O)[C@@H](NC(=O)OC)C(C)C)[nH]4)cc(C)c3-c3cc4cc(-c5cnc([C@@H]6C[C@H]7C[C@H]7N6C(=O)[C@@H](NC(=O)OC)C(C)C)[nH]5)ccc4n32)s1 (single isomer, unassigned) [Compound 205] | 6 | – | 0.57 | 2.46 | –
14 | COC(=O)N[C@H](C(=O)N1CCC[C@H]1c1ncc(-c2cc(F)c3c(c2)OC(c2cnc(-c4ccc(C)o4)s2)n2c-3cc3cc(-c4cnc([C@@H]5CCCN5C(=O)[C@@H](NC(=O)OC)C(C)C)[nH]4)ccc32)[nH]1)C(C)C (single isomer, unassigned) [Compound 413] | 3.6 | – | 0.173 | – | IC50 [4, 6]: 0.0196 nM
15 | COC(=O)NC(C(=O)N1CCC[C@H]1c1ncc(-c2ccc3c(c2)cc2n3C(c3cnc(C(C)C)s3)Oc3cc(-c4cnc([C@@H]5CCCN5C(=O)[C@@H](NC(=O)OC)C(C)C)[nH]4)cc(F)c3-2)[nH]1)C1C[C@@H](C)O[C@@H](C)C1 (single isomer, unassigned) [Compound 56] | 1.1 | – | 0.104 | 0.285 | –
16 | COC(=O)N[C@H](C(=O)N1CCC[C@H]1c1ncc(-c2cc(F)c3c(c2)OC(c2cc(C)ns2)n2c-3cc3cc(-c4cnc([C@@H]5CCCN5C(=O)[C@@H](NC(=O)OC)C(C)C)[nH]4)ccc32)[nH]1)C(C)C (single isomer, unassigned) [Compound 502] | 1.6 | – | – | – | IC50 [3, 5]: 2.31 nM; IC50 ([1]; Hepatitis C virus): 2.5 pM
17 | COC(=O)NC(C(=O)N1CCC[C@H]1c1ncc(-c2ccc3c(c2)cc2n3C(c3nc4c(s3)CCC4)Oc3cc(-c4cnc([C@@H]5CCCN5C(=O)[C@@H](NC(=O)OC)C(C)C)[nH]4)cc(F)c3-2)[nH]1)C1CCOC(C)(C)C1 (single isomer, unassigned) [Compound 537] | 1.9 | – | – | – | IC50 [3, 5]: 0.198 nM; IC50 [4, 6]: 3.33 nM
18 | COC(=O)N[C@H](C(=O)N1CCC[C@H]1c1ncc(-c2cc(F)c3c(c2)OC(c2sc(C4CC4)nc2C2CC2)n2c-3cc3cc(-c4cnc([C@@H]5CCCN5C(=O)[C@@H](NC(=O)OC)C(C)C)[nH]4)ccc32)[nH]1)C(C)C (single isomer, unassigned) [Compound 526] | – | 2.4 | – | – | IC50 [3, 5]: 0.537 nM; IC50 [1]: 1.1 pM
19 | COC(=O)NC(C(=O)N1CCC[C@H]1c1ncc(-c2ccc3c(c2)cc2n3C(c3cnc(CC(C)C)s3)Oc3cc(-c4cnc([C@@H]5CCCN5C(=O)[C@@H](NC(=O)OC)C(C)C)[nH]4)cc(F)c3-2)[nH]1)C1CCOC(C)(C)C1 (single isomer, unassigned) [Compound 543] | – | 2.1 | 0.153 | 0.167 | –
20 | COC(=O)N[C@H](C(=O)N1CCC[C@H]1c1ncc(-c2cc(F)c3c(c2)OC(c2nc(C(F)(F)F)cs2)n2c-3cc3cc(-c4cnc([C@@H]5CCCN5C(=O)[C@@H](NC(=O)OC)C(C)C)[nH]4)ccc32)[nH]1)C(C)C (single isomer, unassigned) [Compound 420] | – | 10.1 | 5.56 | 1.87 | –
21 | COC(=O)NC(C(=O)N1[C@@H]2C[C@@H]2C[C@H]1c1ncc(-c2ccc3c(c2)c(F)c2n3C(c3cnc(C4CC4)s3)Oc3cc(-c4cnc([C@@H]5CCCN5C(=O)[C@@H](NC(=O)OC)C(C)C)[nH]4)cc(F)c3-2)[nH]1)C1CCOC(C)(C)C1 (single isomer, unassigned) [Compound 113] | – | 2 | 0.176 | 0.678 | –
22 | CCc1ncc(C2Oc3cc(-c4cnc([C@@H]5CCCN5C(=O)[C@@H](NC(=O)OC)C(C)C)[nH]4)cc(F)c3-c3cc4cc(-c5cnc([C@@H]6CCCN6C(=O)C(NC(=O)OC)C6CCOC(C)(C)C6)[nH]5)ccc4n32)s1 (single isomer, unassigned) [Compound 37] | 2.2 | – | 0.226 | 0.257 | –
23 | COC(=O)NC(C(=O)N1CCC[C@H]1c1ncc(-c2ccc3c(c2)cc2n3C(c3cnc(C(C)C)s3)Oc3cc(-c4cnc([C@@H]5CCCN5C(=O)[C@@H](NC(=O)OC)C(C)C)[nH]4)cc(F)c3-2)[nH]1)C1CCOC(C)(C)C1 (single isomer, unassigned) [Compound 62] | – | 1.8 | 0.427 | – | IC50 [4, 6]: 0.212 nM
